According to PubChem BioAssay (NCI):
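Growth conditions: 96-well plates. Treatment: test compound, 48 hours, 5 concentrations. Analysis: linear interpolation between bracketing concentrations; unreached endpoints set to highest concentration. Abbreviation: GI50, concentration required for 50% inhibition of growth. At the TGI there is no net growth.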

Assays:
Test in all cases: NCI-60 cell line screen, 48 h
SNB-75 CNS = system: SNB-75 CNS
HOP-62 NSCLC = system: HOP-62 NSCLC
PC-3 prostate = system: PC-3 prostate
DU-145 prostate = system: DU-145 prostate
IGROV1 ovarian = system: IGROV1 ovarian
OVCAR-5 ovarian = system: OVCAR-5 ovarian
RXF 393 renal = system: RXF 393 renal
MDA-MB-468 breast = system: MDA-MB-468 breast
U251 CNS = system: U251 CNS
MALME-3M melanoma = system: MALME-3M melanoma
SK-MEL-5 melanoma = system: SK-MEL-5 melanoma
HL-60(TB) leukemia = system: HL-60(TB) leukemia
UO-31 renal = system: UO-31 renal
SK-MEL-28 melanoma = system: SK-MEL-28 melanoma
NCI/ADR-RES ovarian = system: NCI/ADR-RES ovarian
HCT-116 colon = system: HCT-116 colon
CCRF-CEM leukemia = system: CCRF-CEM leukemia
OVCAR-4 ovarian = system: OVCAR-4 ovarian
MOLT-4 leukemia = system: MOLT-4 leukemia
HOP-92 NSCLC = system: HOP-92 NSCLC
HCT-15 colon = system: HCT-15 colon
UACC-62 melanoma = system: UACC-62 melanoma
MDA-MB-231 breast = system: MDA-MB-231 breast
SF-295 CNS = system: SF-295 CNS
UACC-257 melanoma = system: UACC-257 melanoma
SK-OV-3 ovarian = system: SK-OV-3 ovarian
M14 melanoma = system: M14 melanoma
MCF7 breast = system: MCF7 breast
EKVX NSCLC = system: EKVX NSCLC
SR leukemia = system: SR leukemia
NCI-H226 lung = system: NCI-H226 lung
SN12C renal = system: SN12C renal
786-0 renal = system: 786-0 renal
OVCAR-3 ovarian = system: OVCAR-3 ovarian
SNB-19 CNS = system: SNB-19 CNS
SK-MEL-2 melanoma = system: SK-MEL-2 melanoma
CAKI-1 renal = system: CAKI-1 renal
T-47D breast = system: T-47D breast
HS 578T breast = system: HS 578T breast
LOX IMVI melanoma = system: LOX IMVI melanoma
A498 renal = system: A498 renal
A549 NSCLC = system: A549 NSCLC
BT-549 breast = system: BT-549 breast
ACHN renal = system: ACHN renal
TK-10 renal = system: TK-10 renal
RPMI-8226 leukemia = system: RPMI-8226 leukemia
HCC-2998 colon = system: HCC-2998 colon
SF-539 CNS = system: SF-539 CNS
K-562 leukemia = system: K-562 leukemia
NCI-H23 lung = system: NCI-H23 lung
SF-268 CNS = system: SF-268 CNS
KM12 colon = system: KM12 colon
SW-620 colon = system: SW-620 colon
HT29 colon = system: HT29 colon
OVCAR-8 ovarian = system: OVCAR-8 ovarian
NCI-H522 lung = system: NCI-H522 lung
COLO 205 colon = system: COLO 205 colon
MDA-MB-435 = system: MDA-MB-435

## O=C(NN1C(=O)/C(=C/C=C/c2ccc([N+](=O)[O-])o2)SC1=S)c1ccccc1O
SNB-75 CNS
  GI50: 1290 nM
  TGI: 5840 nM
HOP-62 NSCLC
  GI50: 1620 nM
  TGI: 3110 nM
PC-3 prostate
  GI50: 1920 nM
  TGI: 4940 nM
DU-145 prostate
  GI50: 1590 nM
  TGI: 3020 nM
IGROV1 ovarian
  GI50: 1230 nM
  TGI: 2480 nM
OVCAR-5 ovarian
  GI50: 1840 nM
  TGI: 3300 nM
RXF 393 renal
  GI50: 1420 nM
  TGI: 2760 nM
MDA-MB-468 breast
  GI50: 1400 nM
  TGI: 3070 nM
U251 CNS
  GI50: 1270 nM
  TGI: 2620 nM
MALME-3M melanoma
  GI50: 223 nM
  TGI: 507 nM
SK-MEL-5 melanoma
  GI50: 771 nM
  TGI: 2030 nM
HL-60(TB) leukemia
  GI50: 1730 nM
  TGI: 9470 nM
UO-31 renal
  GI50: 1240 nM
  TGI: 2490 nM
SK-MEL-28 melanoma
  GI50: 1680 nM
  TGI: 3130 nM
NCI/ADR-RES ovarian
  GI50: 1780 nM
  TGI: 5750 nM
HCT-116 colon
  GI50: 197 nM
  TGI: 395 nM
CCRF-CEM leukemia
  GI50: 318 nM
  TGI: 1490 nM
OVCAR-4 ovarian
  GI50: 1720 nM
  TGI: 3720 nM
MOLT-4 leukemia
  GI50: 390 nM
  TGI: 7560 nM
HOP-92 NSCLC
  GI50: 1680 nM
  TGI: 4130 nM
HCT-15 colon
  GI50: 149 nM
  TGI: 340 nM
UACC-62 melanoma
  GI50: 675 nM
  TGI: 1900 nM
MDA-MB-231 breast
  GI50: 257 nM
  TGI: 613 nM
SF-295 CNS
  GI50: 1790 nM
  TGI: 3420 nM
UACC-257 melanoma
  GI50: 1720 nM
  TGI: 3600 nM
SK-OV-3 ovarian
  GI50: 2260 nM
  TGI: 5280 nM
M14 melanoma
  GI50: 298 nM
  TGI: 873 nM
MCF7 breast
  GI50: 432 nM
  TGI: 2020 nM
EKVX NSCLC
  GI50: 1370 nM
  TGI: 2750 nM
SR leukemia
  GI50: 221 nM
  TGI: > 100000 nM
NCI-H226 lung
  GI50: 1110 nM
  TGI: 2690 nM
SN12C renal
  GI50: 237 nM
  TGI: 714 nM
786-0 renal
  GI50: 1110 nM
  TGI: 2330 nM
OVCAR-3 ovarian
  GI50: 1230 nM
  TGI: 2540 nM
SNB-19 CNS
  GI50: 1760 nM
  TGI: 3340 nM
SK-MEL-2 melanoma
  GI50: 663 nM
  TGI: 2060 nM
CAKI-1 renal
  GI50: 1330 nM
  TGI: 2670 nM
T-47D breast
  GI50: 1630 nM
  TGI: 3230 nM
HS 578T breast
  GI50: 2100 nM
  TGI: 7470 nM
LOX IMVI melanoma
  GI50: 194 nM
  TGI: 402 nM
A498 renal
  GI50: 18300 nM
  TGI: 32600 nM
A549 NSCLC
  GI50: 2980 nM
  TGI: 10500 nM
BT-549 breast
  GI50: 673 nM
  TGI: 1800 nM
ACHN renal
  GI50: 1460 nM
  TGI: 2780 nM
TK-10 renal
  GI50: 1960 nM
  TGI: 4190 nM
RPMI-8226 leukemia
  GI50: 379 nM
  TGI: 2530 nM
HCC-2998 colon
  GI50: 1370 nM
  TGI: 2700 nM
SF-539 CNS
  GI50: 1310 nM
  TGI: 2670 nM
K-562 leukemia
  GI50: 276 nM
  TGI: > 33300 nM
NCI-H23 lung
  GI50: 846 nM
  TGI: 2170 nM
SF-268 CNS
  GI50: 1800 nM
  TGI: 4200 nM
KM12 colon
  GI50: 1620 nM
  TGI: 3770 nM
SW-620 colon
  GI50: 196 nM
  TGI: 426 nM
HT29 colon
  GI50: 1000 nM
  TGI: 2780 nM
OVCAR-8 ovarian
  GI50: 366 nM
  TGI: 1600 nM
NCI-H522 lung
  GI50: 262 nM
  TGI: 749 nM
COLO 205 colon
  GI50: 957 nM
  TGI: 2280 nM
MDA-MB-435
  GI50: 371 nM
  TGI: 1380 nM
